Data set [1] is described as follows: Specific gravity of polymerizable monomer (gravimeter). It counts as physicochemical. On the procedure: Among these, the polymerizable monomer preferably includes a polymerizable monomer having a specific gravity of 1.0 or less.
In the present disclosure, the specific gravity is measured using a gravimeter, for example, a high precision electronic gravimeter (model number “EW-300SG”, manufactured by Alfa Mirage).

Data set [2] can be described thus: Surface tension of surfactant added at 0.5% by mass to CTFA (plate method, 25° C.). It counts as physicochemical. To be noted: neat CTFA. The method, then: In the present disclosure, the “polymerizable surfactant” refers to a surfactant having a polymerizable group. In the present disclosure, the “surfactant” refers to a compound in which, in a case of adding the compound in an addition amount of 0.5% by mass with respect to cyclic trimethylolpropane formal acrylate (hereinafter, referred to as “CTFA”), a surface tension is reduced 1 mN/m or more. The surface tension is measured by a plate method at 25° C. using a surface tension meter, and for example, can be measured using an automatic surface tension meter (product name “DY-300”) manufactured by Kyowa Interface Science Co., Ltd. A surface tension of CTFA is 36.5 mN/m. […]
With regard to a product in which the content of the surfactant is not 100% by mass (for example, a product containing a solvent other than the surfactant), the content of the surfactant is adjusted to 100% by mass, and the surface tension is measured using the surfactant alone. […]
In Tables 1 to 10, “Polyfunctional monomer/polymerizable surfactant” indicates the mass ratio of the content of the polyfunctional monomer to the content of the polymerizable surfactant. […] The surface tension reduction relative to CTFA was calculated based on the following expression.

The values that follow come from patent publication US20240043706A1, “ACTIVE ENERGY RAY-CURABLE INKJET INK FOR BEVERAGE CONTAINER, ACTIVE ENERGY RAY-CURABLE INKJET INK SET, AND IMAGE RECORDING METHOD” (FUJIFILM CORPORATION, priority 2021, published 2024).

Like-named read-outs stand apart in the source and are kept apart here.

As to `C=CC(=O)OCCCCCCC(C)C` [Isononyl acrylate], the Specific gravity in data set [1] was determined as 0.885 g/mL. As for `C=CC(=O)OCC1(CC)COCOC1` [CTFA, cyclic trimethylolpropane formal acrylate], the “Surface tension of CTFA” value in data set [2] is given as 36.5 mN/m. In data set [1], this molecule displayed a Specific gravity of 1.09 g/mL. As to `C=CC(=O)OCCCCO` [Example 4-HBA], the Specific gravity in data set [1] came out at 1.04 g/mL. Same read-out and setting: the value for `C=CC(=O)OCCCCCCCCCCCCCCCC(C)C` [Isostearyl acrylate] was 0.871 g/mL.

In the case of `C=COCCOCCOCCOC=C` [Triethylene glycol divinyl ether], in data set [1], the Specific gravity was 1.00 g/mL.

Molecule t-Butylcyclohexyl acrylate displayed a Specific gravity in data set [1] of 0.941 g/mL. On the same count and under the same terms, the value for `C=CC(=O)NC(C)C` [N-Isopropyl acrylamide] was 0.89 g/mL. With `C=CC(=O)OCCCCCCCCCCCCCCCCCC` [Stearyl acrylate], the Specific gravity in data set [1] is 0.86 g/mL. Still for that read-out and setting: the same measure for `C=CC(=O)N(C)C` [N,N-Dimethylacrylamide]: 0.964 g/mL; for `C=CC(=O)OCCCCCCCCC` [Nonyl acrylate]: 0.875 g/mL; for `C=CC(=O)OCCOCCOCCOC(=O)C=C` [TEGDA]: 1.05 g/mL. On the same count and under the same terms, the same measure for `C=CC(=O)OCCC(C)CCOC(=O)C=C` [Example 3MPDDA]: 1.03 g/mL; for `C=CC(=O)OC1CCCCC1` [Cyclohexyl acrylate]: 0.98 g/mL; for `C=CC(=O)O[C@@H]1C[C@H]2CC[C@]1(C)C2(C)C` [Isobornyl acrylate]: 0.987 g/mL. Still for that read-out and setting: the same measure for `C=CC(=O)OCCCCCCCC` [n-Octyl acrylate]: 0.894 g/mL.

`C=CC(=O)OCCCCCCCCCCOC(=O)C=C` [Decanediol diacrylate]: the Specific gravity in data set [1] was 0.968 g/mL; in data set [1] (listed as DDDA) it was 0.97 g/mL. In data set [1], `C=CC(=O)OCCCCCCCC(C)C` [Isodecyl acrylate] showed a Specific gravity of 0.88 g/mL. The same measure, in the same setting: the value for Tricyclohexyl acrylate was 0.93 g/mL; that for `C=CC(=O)OCCCCCCCCCCCC` [Lauryl acrylate] was 0.875 g/mL.
